Publication PMC6381024, “Probing Anti-inflammatory Properties Independent of NF-κB Through Conformational Constraint of Peptide-Based Interleukin-1 Receptor Biased Ligands” (Frontiers in Chemistry, 2019)

Tests used:
retinal microglia = assay: Retinal microglial activation and density (Iba-1 staining) in the OIR model; format: in vivo; conditions: OIR rat pups, 2 mg/kg/day i.p.; for Effect on microglial activation / morphology: Iba-1 immunohistochemistry
Description: On P5, litters were transferred to a controlled hyperoxic environment (Biospherix OxyCycler A84XOV) and maintained at 80 ± 1% O2, which is used to induce vaso-obliteration of the retinal vasculature. At this timepoint, the vasculature is immature and particularly susceptible to […] insults resulting in vaso-obliteration, a defining characteristic of the early stage of retinopathies in premature infants (Garner and Ashton, [1971]). Control litters were not exposed to hyperoxia and were kept in standard conditions with room air (21% O2). To control for the effects of hyperoxia on the lactation of the dams, dams of hyperoxic litters were switched with dams of control litters on P8.
In litters exposed to hyperoxia, pups were randomized to receive phosphate-buffered saline (PBS) vehicle, 2 mg/kg/day of peptides 1, 5, or 6 or 3 mg/kg/day of Kineret from P5 to P10. These doses were determined from our previous study (Rivera et al., [2013]) and administered in twice-daily intra-peritoneal injections titrated to 20 μL per injection with 28-gauge insulin syringes. A total of 6–8 pups were used for each treatment group.
Retinas were treated at room temperature for 1 h with a blocking solution consisting of 1% bovine serum albumin (BSA), 1% normal goat serum, 0.1% Triton X-100 and 0.05% Tween-20 in PBS. The retinas were then double-labeled overnight at 4°C with gentle shaking in an antibody solution consisting of 1 mM CaCl2, 1% Triton X-100, 1% TRITC-conjugated lectin cell endothelial marker from Bandeiraea simplicifolia (Sigma-Aldrich, St Louis, MO) and a 1:500 dilution of rabbit anti-ionized calcium-binding adapter molecule (Iba)-1 antibody (Wako Chemicals USA) in PBS. The retinas were then washed thrice with PBS and incubated with a secondary antibody solution consisting of 1% BSA, 0.1% Triton X-100, 0.05% Tween-20 and 1:500 Alexa-594-conjugated donkey anti-rabbit IgG (ThermoFisher Scientific, Rockford, IL) in PBS for 2 h at room temperature. Retinas were washed thrice with PBS and then flat-mounted onto glass slides with coverslips and Fluoro-Gel mounting medium (Electron Microscopy Sciences, Hatfield, PA).
For assessment of vaso-obliteration, retinas were imaged using an epifluorescence microscope at 10X magnification (Zeiss AxioImager Z2) and version 4.8 of the AxioVision software. Images were captured and stitched together using the software's MosaiX feature. Iba-1 staining was assessed with the same microscope at 20X magnification, and a total of 4 fields per retina were imaged halfway between the optic nerve and the edge of the retina.
Representative images of Iba-1 staining were taken using a laser scanning confocal microscope (Olympus IX81 with Fluoview FV1000 Scanhead) with the Fluoview Software at 30X magnification.
The FIJI software was used to the quantify the area of vaso-obliteration in each retina, expressed as a percentage of the area of the whole retina. The number of Iba-1-positive cells was counted using the cell counter plug-in in FIJI, and the average of cell counts in 4 fields per retina was calculated.
Figure 11 The effects of peptides 1, 5, and 6 on retinal microglial activation and density. Retinas were obtained for immunohistochemistry from rat pups treated with the OIR protocol, and incubated with rabbit anti-iba-1 antibody, followed by donkey anti-rabbit antibody conjugated to Alexa 594. (A) Representative confocal images of retinal microglia at 30X magnification: scale bar 100 μm. (B) Epifluorescence microscopy images at 20 × magnification of retinal microglial density quantified using ImageJ: 4 images per retina were taken at a distance halfway between the optic nerve and the peripheral edge of the retina; n = 5–7 for peptide 1, 5, and 6, and Kineret; n = 8–10 for normoxia and vehicle; ^*p < 0.05, ^****p < 0.0001 relative to the vehicle group. Treatment groups that are not labeled with asterisks are statistically non-significant compared to the vehicle group.

[1] = tested on: thymocyte TF-1 proliferation; conditions: ref Jamieson et al., 2009; Boutard et al., 2011; cited from earlier work
Description: Conformational restriction of natural peptides has been used to identify active geometry and to enhance therapeutic potential by mitigating issues such as low oral availability and poor metabolic stability (Carney et al., [2014]; Rubin and Qvit, [2016]; Lubell, [2017]). Since pioneering studies by Freidinger and Veber, the application of Agl residues has proven effective for constraining the backbone sequence to favor β-turn geometry in various peptides (Freidinger et al., [1980], [1982]; Yu et al., [1988]; Zhang et al., [1996]; Aube, [1999]; Perdih and Kikelj, [2006]; Valle et al., [2009]). I ...

Row | Substance | Reduction of microglial density (retinal microglia; Iba-1-positive cell counts) [%] | Effect on microglial activation / morphology (retinal microglia) | Inhibition of IL-1β-induced thymocyte TF-1 proliferation, compared to peptide 1 [1]
1 | H-D-Arg-D-Tyr-(S)-Agl-D-Val-D-Glu-D-Leu-D-Ala-NH2 [[(3S)-Agl^3]-1] | < 20 | no appreciable effect on microglial morphology | –
2 | H-D-Arg-D-Tyr-(R)-Agl-D-Val-D-Glu-D-Leu-D-Ala-NH2 [[(3R)-Agl^3]-1] | – | no appreciable effect on microglial morphology | significantly diminished activity
3 | H-D-Arg-D-Tyr-(3S,4R)-Hgl-D-Val-D-Glu-D-Leu-D-Ala-NH2 [[(3S,4R)-Hgl^3]-1] | – | prevented partially the activation of microglia | –
4 | H-D-Arg-D-Tyr-(3R,4S)-Hgl-D-Val-D-Glu-D-Leu-D-Ala-NH2 [[(3R,4S)-Hgl^3]-1] | – | prevented partially the activation of microglia | –
5 | H-D-Arg-D-Tyr-D-Thr-D-Val-D-Glu-D-Leu-D-Ala-NH2 [Peptide 1] | – | inactive and ramified | –
